Assay [1] deals with allergic manifestations caused by antigen-antibody interaction. Particulars: tris(hydroxymethyl)aminomethane salts; U.S. Ser. No. 233,772 and 261,524; cited from earlier work.
The test system of assay [2] is rat passive cutaneous anaphylaxis. Put plainly: rat passive cutaneous anaphylaxis (PCA) test. Format: in vivo, rat (female Sprague-Dawley). Particulars: for % Inhibition in Rat PCA: 48 hour sensitization. The source says:
The compound under review is first tested in the rat passive cutaneous anaphylaxis test system. This test is employed to determine if the compound does inhibit allergic manifestations. A DSCG biologue will inhibit allergic manifestations. The anti-allergy activity of DSCG biologues vary.
Female Sprague-Dawley 250 gm. rats are skin-sensitized with rat anti-ovalbumin homocytotropic antibody that is heat labile and has a passive cutaneous anaphylaxis titer of (1:128). After a 72-hour latency period, the animals are challenged i.v. with a 4 mg. ovalbumin (OA) + 5 mg. Evans blue dye. Thirty minutes later the extravascular bluing that results from antigen antibody combination at the skin site is read. Antibody dilutions are used such that in control animals a 4 mm spot in the lowest detectable spot, and 4 or 5 lower dilutions are used to give a range of antibody in each animal. Four to five animals are used for each variable in the experiment. Percent inhibition of the PCA assay is calculated by comparing the spot scores of DSCG treated rats with the spot scores of control rats. The spot score is the total number of detectable spots over the number of animals.
DSCG Priming Treatment: Passively sensitized rats are injected i.v. 2.0 hours before antigen challenge i.v. Two hours after an i.v. priming dose of 10 mg./kg. DSCG, the rats are challenged with antigen alone.
The time course of the effective life of DSCG in rats is shown in Table I. DSCG was administered i.p. and was followed by i.v. challenge with 4 mg. ovalbumin and 5 mg. of Evans Blue. Spot score was calculated 30 minutes later from a total of four animals for each time point.
The animals are rested 2 hours between primary i.v. DSCG injection and i.v. antigen challenge, including secondary DSCG dosing. In view of Table I, this time period is of such a length that the effect from the initial dose of DSCG is not a significant factor.
The effect of a time lag between priming doses and secondary doses with regard to the drug sparing effect and the responsiveness of the treated mammal to further treatment with DSCG or a DSCG biologue is shown in Table III. Rats were injected once daily with 10 mg./kg. DSCG for three days. Control rats were also injected with 1.0 ml. of saline at the same time. Twenty and 48 hours after the last dose of DSCG in the three dose series all rats were injected with DSCG. 4 mg. ovalbumin, and 5 mg. of Evans Blue dye.
Th sparing effect using a DSCG biologue, the tris(hydroxymethyl)aminomethane salt of 10-chloro-1,4,6,9-tetrahydro-4,6-dioxopyrido[3,2-g]quinoline-2,8-dicarboxylic acid, referred to as Compound 10 Cl in this Example, is shown in the rat PCA of Table IV. When using this compound in a priming situation, 2.0 mg./kg., 1.0 mg./kg., 0.025 mg./kg. and 0.01 mg./kg. give inhibitions of 93, 86, 44 and 0% respectively. The data of Table IV are obtained in the usual manner except that a 48 hour instead of a 72 hour sensitization period was used.

Assay [3] concerns mediators of anaphylaxis. Particulars: cited from earlier work.

Where a name gives a salt, the structure may show the parent alone.

For the compound `Cc1c2[nH]c(C(=O)O)cc(=O)c2cc2c(=O)cc(C(=O)O)[nH]c12` [1,4,6,9-tetrahydro-10-methyl-4,6-dioxopyrido[3,2-g]quinoline-2,8-dicarboxylic acid], in assay [1], the “ability to prophylactically protect against allergic manifestations” value (“ability to prophylactically protect” for short) is on record as “have this ability to prophylactically protect against allergic manifestations”.

As for `O=C(O)c1cc(=O)c2cc3c(=O)cc(C(=O)O)[nH]c3c(Cl)c2[nH]1` [Compound 10 Cl, tris(hydroxymethyl)aminomethane salt of 10-chloro-1,4,6,9-tetrahydro-4,6-dioxopyrido[3,2-g]quinoline-2,8-dicarboxylic acid], in assay [1], the “ability to prophylactically protect” value is “have this ability to prophylactically protect against allergic manifestations”. Besides, the sparing result in assay [2] (0.01 mg./kg. maintenance dose, primed with 2.0 or 1.0 mg./kg.) is “sparing is seen”. Further, the “inhibition in a priming situation” value in assay [2] (0.01 mg./kg. priming) amounted to 0%; in assay [2] (0.025 mg./kg. priming), 44%; in assay [2] (1.0 mg./kg. priming), 86%; in assay [2] (2.0 mg./kg. priming), 93%. The “% Inhibition in Rat PCA” value in assay [2] (priming 0.01 mg./kg., secondary 0.01 mg./kg.) turned out to be 6%; in assay [2] (priming 0.01 mg./kg., secondary 0.025 mg./kg.), 44%; in assay [2] (priming 0.01 mg./kg., secondary 1.0 mg./kg.), 71%; in assay [2] (priming 0.01 mg./kg., secondary 2.0 mg./kg.) it was 80%; in assay [2] (priming 0.025 mg./kg., secondary 0.01 mg./kg.), 6%; in assay [2] (priming 0.025 mg./kg., secondary 0.025 mg./kg.), 23%. Besides, the “% Inhibition in Rat PCA” value in assay [2] (priming 0.025 mg./kg., secondary 1.0 mg./kg.) is reported as 52%; in assay [2] (priming 0.025 mg./kg., secondary 2.0 mg./kg.), 62%; in assay [2] (priming 1.0 mg./kg., secondary 0.01 mg./kg.), 44%; in assay [2] (priming 1.0 mg./kg., secondary 0.025 mg./kg.), 44%; in assay [2] (priming 1.0 mg./kg., secondary 1.0 mg./kg.), 44%; in assay [2] (priming 1.0 mg./kg., secondary 2.0 mg./kg.), 52%. For the same compound, the “% Inhibition in Rat PCA” value in assay [2] (priming 2.0 mg./kg., secondary 0.01 mg./kg.) came to 52%; in assay [2] (priming 2.0 mg./kg., secondary 0.025 mg./kg.), 33%; in assay [2] (priming 2.0 mg./kg., secondary 1.0 mg./kg.), 14%; in assay [2] (priming 2.0 mg./kg., secondary 2.0 mg./kg.) it was 6%.

`CCCCC[C@H](O)/C=C/[C@H]1[C@H](O)CC(=O)[C@@H]1CCCCCCC(=O)O` [Prostaglandin E1]: in assay [3], the “response in the DSCG biologue tests” value is listed as “respond appropriately to some of the tests but not all of them”.

With `CCCCC[C@H](O)/C=C/[C@H]1[C@H](O)CC(=O)[C@@H]1C/C=C\CCCC(=O)O` [Prostaglandin E2], in assay [3], the “response in the DSCG biologue tests” value is “respond appropriately to some of the tests but not all of them”.

Turning to `O=C(O)c1cc(=O)c2cc(-c3ccc4[nH]c(C(=O)O)cc(=O)c4c3)ccc2[nH]1` [tris(hydroxymethyl)aminomethane salt of 1,1',4,4'-tetrahydro-4,4'-dioxo[6,6'-biquinoline]-2,2'-dicarboxylic acid], the “ability to prophylactically protect” value in assay [1] was “have this ability to prophylactically protect against allergic manifestations”.

Values taken from US4046910A, “Dosage schedule” (The Upjohn Company, priority 1976, dated 1977).
